Data on 5 molecules can be found in PMC6934657, “Transdermal delivery of nobiletin using ionic liquids” (Scientific Reports, 2019).

In brackets after ≈: the same amount, converted by molar mass.

Data set [1] can be described thus: Measurement of NOB solubility in CAGE. The class given is physicochemical. The settings on record: shaken at 37 °C for 48 h, HPLC. On the procedure:
An excess amount of NOB was added to CAGE in test tubes and the tubes were shaken at 37 °C for 48 h. The supernatants were then collected and filtered through a filter with a pore size of 0.20 µm (Toyo Roshi Co. Ltd., Tokyo, Japan), and the concentration of NOB was determined by high-pressure liquid chromatography (HPLC) (Shimadzu LC-2010C, Kyoto, Japan) with the following conditions: mobile phase 0.1% formic acid in water (solvent A) and acetonitrile (solvent B) (0–20 min, 52.5–75% solvent A); flow rate 1 mL/min; injection volume 5 µL; column Develosil ODS-HG-5, 4.6 mm × 150 mm, 5 µm particle size; column temperature 40 °C; UV detector wavelength 285 nm.

On the set-up of data set [2]: method as in PMID 27076076. The settings on record: oral, 200 mg/kg; cited from earlier work.
For data set [3] the following is noted: cited from earlier work.
Data set [4] can be described thus: In vitro skin penetration test using Franz diffusion cell. The settings on record: 24 h. It counts as in vitro ADME, Yucatan micropig. On the procedure: Porcine skin stored at −70 °C was thawed at 37 °C for 30 min, and then cut into a circle 3.5 cm in diameter. The adipose tissue of this skin was scraped off with a razor. The skin was sandwiched between the acceptor side of a Franz diffusion cell (FDC) (PermeGear, Hellertown, PA, USA) filled with phosphate buffered saline (PBS) solution, and the donor of the FDC, and both sides of the FDC were fixed with a clip. The skin was stretched without wrinkles and the acceptor was degassed. Then, 300 μL of 1, 2, 5, 7, and 10 mg/mL NOB/PBS or NOB/CAGE were added to the donor and incubated for 24 h at 37 °C. After incubation, samples in the donor were removed and the skin was washed up to 5 times with PBS solution. The skin was removed from the FDC and punched out according to the administration area. A tape stripping method was used with ten tapes to obtain parts of the stratum corneum (SC). The remaining epidermis was scraped with a razor and separated from the dermis. NOB was eluted from these tissue samples using methanol: PBS = 1:1 for 24 h. The solutions were centrifuged at 3,000 rpm at 25 °C for 3 min and the supernatant was passed through a membrane filter (pore size: 0.20 µm, Toyo Roshi Co. Ltd.). The amount of NOB in the SC, epidermis, dermis, and acceptor was quantitatively determined by HPLC as described in Section 2.1.2. […] To compare the permeation ability of CAGE with other skin permeation reagents, additional 24-h transdermal tests were performed using 1 mg/mL NOB/diethylene glycol monoethyl ether (DGME): PBS = 1:1 (v:v) and NOB/ethanol (EtOH): […]

The test system of data set [5] is blood glucose level. The data set can be described thus: Hypoglycemic activity after transdermal administration to SD rats. The class given is in vivo. The following applies: transdermal with CAGE, 10 mg/kg. On the procedure: The hypoglycemic activity of the NOB/CAGE sample was evaluated following the same protocol used for the transdermal tests in vivo using SD rats as described in Section 2.4. A 5 mg/mL solution of PBS, NOB/PBS, or NOB/CAGE was transdermally administered to the donor area of the rats (10 mg/kg) and blood was collected from the tail vein after 1, 2, 4, 8, 12, and 24 h. Blood glucose was measured using a commercial glucose meter (ACCU-CHEK® ST Meter, ACCU-CHEK® ST Strip, Roche Diagnostics K.K., Tokyo, Japan) (n = 5).

For data set [6] the following is noted: cited from earlier work. This is another data set of the same source.
On the set-up of data set [7]: method as in PMID 30682442. The settings on record: cited from earlier work.
Details of data set [8]: method as in doi:10.2525/ecb.56.161, PMID 18951932. The settings on record: cited from earlier work.
The subject of data set [9] is blood glucose level. Details: method as in PMID 28337858. The settings on record: transdermal insulin delivery using CAGE; cited from earlier work.

A word on the solubility: it is the concentration that dissolves in the medium under given conditions. Low values mean little dissolved substance, high ones much dissolved substance. Regarding `COc1ccc(-c2cc(=O)c3c(OC)c(OC)c(OC)c(OC)c3o2)cc1OC` [NOB, Nobiletin], the solubility at 48 h in data set [1] was found to be 7200 µg/mL (≈ 17.9 mM). Besides, in data set [2], the “Blood glucose level accompanied with insulin injection” value is recorded as “caused a drop in the BGL”. Also, the Weight gain entry in data set [2] was “significantly suppressed weight gain”. Besides, the “Oral bioavailability in rat” value in data set [3] (oral administration of NOB crystals to rats, ref 14 (Fig. 1: Onoue et al.[11])) is 0.85%. Also, the “Ratio of NOB in deeper fractions (epidermis + dermis + acceptor) to total NOB transferred to the skin” value in [4] (1 mg/mL NOB in 50:50 (v:v) DGME: PBS) is reported as 41%; in data set [4] (1 mg/mL NOB in 50:50 (v:v) EtOH: PBS) it was 54%; in data set [4] (1 mg/mL NOB in CAGE), 77%; in data set [4] (1 mg/mL NOB in PBS), 28%. Also, the “Order of amount of NOB detected in the acceptor by solvent” value in [4] (1 mg/mL NOB) is recorded as “CAGE > EtOH: PBS > PBS > DGME”. For the same molecule, the “Decrease in the blood glucose level over 12 h” value with blood glucose level [5] is “at most 34%”. Moreover, the “Solubility of NOB in water” value in data set [6] (in water, ref Onoue et al.[11]) was 16 µg/mL. Besides, in data set [6] (ref 14 (Fig. 1: Onoue et al.[11])), the Water solubility was 16.2 µg/mL.

In the case of `COc1ccc(-c2cc(=O)c3c(OC)c(OC)c(OC)c(OC)c3o2)cc1OC` [crystalline NOB, Nobiletin], the “Oral BA of crystalline NOB” value in data set [3] (oral, 2 mg/kg) is recorded as 0.46%.

As for `O=c1c(O)c(-c2ccc(O)cc2)oc2cc(O)cc(O)c12` [kaempferol, reference compound], the BA in data set [7] is listed as 2%. For the same molecule, the Solubility in water in data set [6] is 180 µg/mL (≈ 0.629 mM).

`O=c1c(O)c(-c2ccc(O)c(O)c2)oc2cc(O)cc(O)c12` [quercetin, reference compound]: in data set [8], the BA in men is listed as 1%. Further, the Solubility in water in [6] is 1.4 µg/mL (≈ 0.00463 mM).

On to insulin, for which the “Drop in the blood glucose level over 12 h” value with blood glucose level [9] is reported as around 40%.
